The target of data set [1] is T1, Retinoic acid receptor RXR-alpha (Homo sapiens, UniProt P19793).
T1 sequence (P19793 whole entry): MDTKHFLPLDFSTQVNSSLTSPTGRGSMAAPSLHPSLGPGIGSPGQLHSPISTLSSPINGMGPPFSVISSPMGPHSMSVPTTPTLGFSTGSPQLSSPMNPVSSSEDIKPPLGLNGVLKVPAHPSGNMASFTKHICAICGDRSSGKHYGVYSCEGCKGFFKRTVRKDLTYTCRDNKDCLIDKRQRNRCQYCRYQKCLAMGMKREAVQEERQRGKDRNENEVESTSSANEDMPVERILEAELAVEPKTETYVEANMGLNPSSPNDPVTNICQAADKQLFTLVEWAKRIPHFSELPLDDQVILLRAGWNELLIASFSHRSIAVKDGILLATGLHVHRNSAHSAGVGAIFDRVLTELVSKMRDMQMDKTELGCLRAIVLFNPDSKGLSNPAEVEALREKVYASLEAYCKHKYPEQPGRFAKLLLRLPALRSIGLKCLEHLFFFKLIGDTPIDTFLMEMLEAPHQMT
The data set can be described thus: Inhibition of 3[H]9-cis-retinoic acid binding to Retinoic acid receptor RXR-alpha expressed in CV-1 cells. Type of data set: cell-based.

Data set [2] concerns the target T1, Retinoic acid receptor RXR-alpha. The experiment in a line: Antagonist activity against Retinoic acid receptor RXR-alpha expressed in CV-1 cell transcriptional activation assay. The class given is functional, cell-based.
A further data set is filed under the species Homo sapiens. The data set can be described thus: Synergistic activation of retinoid acid receptor (RAR) transcriptional activation at 3 nM TTNPB. Type of data set: functional.
In the next data set the target is RXR alpha/PPAR gamma (Homo sapiens, UniProt P19793). The data set can be described thus: Synergistic activation of BRL-49653 mediated PPAR gamma and retinoid X receptor alpha expressed in CV-1 cell transcriptional activation assay. The class given is functional, cell-based.
In data set [3] the target is T2, Retinoic acid receptor gamma (Homo sapiens, UniProt P13631).
T2 sequence (P13631 whole entry): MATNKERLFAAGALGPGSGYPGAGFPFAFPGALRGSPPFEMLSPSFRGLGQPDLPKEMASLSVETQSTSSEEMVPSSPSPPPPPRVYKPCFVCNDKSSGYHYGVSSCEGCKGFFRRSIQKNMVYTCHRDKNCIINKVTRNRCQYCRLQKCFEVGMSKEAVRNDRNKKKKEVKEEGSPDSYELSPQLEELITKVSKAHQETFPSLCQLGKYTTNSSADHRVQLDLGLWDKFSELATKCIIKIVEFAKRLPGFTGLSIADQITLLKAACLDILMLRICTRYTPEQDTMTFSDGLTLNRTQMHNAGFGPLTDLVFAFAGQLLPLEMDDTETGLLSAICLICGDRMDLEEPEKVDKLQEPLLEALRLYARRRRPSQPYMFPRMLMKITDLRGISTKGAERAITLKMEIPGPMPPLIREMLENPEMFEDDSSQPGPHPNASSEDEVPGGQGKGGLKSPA
The experiment in a line: Inhibition of 3[H]ATRA binding to retinoid acid receptor gamma expressed in CV-1 cells. Type of data set: cell-based.

Data set [4] deals with T1, Retinoic acid receptor RXR-alpha. The experiment in a line: Agonist activity against Retinoic acid receptor RXR-alpha expressed in CV-1 cell transcriptional activation assay. The class given is functional, cell-based.
The next data set concerns Mus musculus. The experiment in a line: Cmax after oral administration at 30 mg/kg in ICR mouse. The class given is ADME, organism-based. Further details: dose 30 mg/kg, route oral. The note with it: in vivo.
Data set [5] in a line: Tmax after oral administration at 30 mg/kg in ICR mouse. Type of data set: ADME, organism-based. More on the design: dose 30 mg/kg, route oral. The note with it: in vivo.
The nature of data set [6]: AUC (0-6 hr) after oral administration at 30 mg/kg in ICR mouse. Type of data set: ADME, organism-based. More on the design: time < 6 hr, route oral, dose 30 mg/kg. The conditions noted are these: plasma.

Each structure is given as a SMILES string. A value given as a limit tells only on which side of the number the result lay.

Results on nine compounds are retold here after ChEMBL document CHEMBL1136229, “Design and synthesis of fluorinated RXR modulators” (Bioorg Med Chem Lett, 2003).

RXR alpha/PPAR gamma, sequence (P37231 whole entry, one chain of several): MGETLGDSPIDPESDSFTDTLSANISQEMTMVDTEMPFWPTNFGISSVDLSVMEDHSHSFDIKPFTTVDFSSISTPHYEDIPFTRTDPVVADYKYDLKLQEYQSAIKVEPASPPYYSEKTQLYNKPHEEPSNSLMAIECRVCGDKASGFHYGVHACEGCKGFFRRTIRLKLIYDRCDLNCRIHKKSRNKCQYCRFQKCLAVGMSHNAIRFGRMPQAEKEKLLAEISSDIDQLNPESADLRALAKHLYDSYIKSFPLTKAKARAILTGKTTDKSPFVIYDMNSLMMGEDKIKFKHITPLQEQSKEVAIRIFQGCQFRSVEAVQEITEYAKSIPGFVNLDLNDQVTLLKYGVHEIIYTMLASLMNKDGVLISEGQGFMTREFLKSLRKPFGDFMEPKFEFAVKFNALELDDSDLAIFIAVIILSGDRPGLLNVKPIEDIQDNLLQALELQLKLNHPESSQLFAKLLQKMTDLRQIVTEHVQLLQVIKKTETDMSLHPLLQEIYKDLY

The term Ki denotes a dissociation constant, usually derived from enzyme kinetics or from competition with a known ligand. As a reminder, the EC50 is the midpoint of the concentration-response curve. `CCOc1c(\C(=C/C=C/C(C)=C/C(=O)O)C(F)(F)F)cc(C(C)(C)C)cc1C(C)(C)C`: the affinity in data set [1], expressed as Ki, was 50.3 nM. For the same compound, the 50% effective concentration (EC50) was 38 nM in data set [2] and 167 nM on RXR alpha/PPAR gamma. The Synergy in the data set listed under Homo sapiens was 7.
`CCCCOc1c(\C(C)=C/C=C/C(=C/C(=O)O)C(F)(F)F)cc(C(C)(C)C)cc1C(C)(C)C`: the Ki in [1] is 5210 nM; in [3], above 10000 nM. Moreover, the values for the EC50 (in data set [2]; at RXR alpha/PPAR gamma) were 806 nM and 359 nM, respectively. Also, in the data set listed under Homo sapiens, the Synergy stood at 1.3.
On to `C/C(=C/C=C(F)/C(C)=C/C(=O)O)c1cc(C(C)(C)C)cc(C(C)(C)C)c1OCC(F)F`, for which the half-maximal effective concentration (EC50) in data set [2] amounted to 4840 nM; at RXR alpha/PPAR gamma, 143 nM. In addition, the Synergy in the data set listed under Homo sapiens was determined as 2.5. This compound came in with a Ki in data set [3] above 10000 nM.
Consider `C/C(=C/C(F)=C/C(C)=C/C(=O)O)c1cc(C(C)(C)C)cc(C(C)(C)C)c1OCC(F)F`, for which the half-maximal effective concentration (EC50) in data set [4] is 259 nM; in data set [2], 8710 nM; on RXR alpha/PPAR gamma, 249 nM. Besides, in the data set listed under Homo sapiens, the Synergy turned out to be 8.9. For the same compound, the Ki in data set [3] is above 10000 nM.
For `CCOc1c(\C(C)=C/C=C/C(C)=C/C(=O)O)cc(C(C)(C)C)cc1C(C)(C)C`, a half-maximal effect in [2] (EC50) was put at 6.4 nM. Besides, in the data set filed under Homo sapiens, the Synergy was 2. The Ki in data set [3] worked out at 8570 nM.
`C/C(=C/C=C/C(C)=C(\F)C(=O)O)c1cc(C(C)(C)C)cc(C(C)(C)C)c1OCC(F)F`: the results for the Ki in [1] and in data set [3] were 10.6 nM and above 10000 nM, respectively. The concentration for a half-maximal effect (EC50) in data set [2] worked out at 3.4 nM; on RXR alpha/PPAR gamma it was 2.7 nM. For the same compound, in the data set listed under Homo sapiens, the Synergy came to 1.5.
As usually defined, the Cmax is the highest concentration seen after dosing. As usually defined, the Tmax is the time at which the peak concentration occurs. The term AUC(0-t) denotes the area under the concentration-time curve up to a stated or last time point. Low readings indicate less exposure, high ones more exposure. As for `C/C(=C/C=C/C(C)=C/C(=O)O)c1cc(C(C)(C)C)cc(C(C)(C)C)c1OCC(F)F`, in the data set on Mus musculus, the Cmax came out at 1200 ng/mL. In data set [5], the Tmax turned out to be 1 h. The Synergy in the data set listed under Homo sapiens is 1.4. Also, in data set [3], the inhibition constant Ki was above 10000 nM. In addition, in [6], the AUC(0-t) at 6 h was 2090 ng·h/mL.
Consider `CC(/C=C/C(F)=C(/C)c1cc(C(C)(C)C)cc(C(C)(C)C)c1OCC(F)F)=C\C(=O)O`, for which the Ki is 7.8 nM in [1] and above 10000 nM in data set [3]. In addition, in the data set on Mus musculus, the Cmax was 3690 ng/mL. Further, the Tmax in data set [5] was determined as 3 h. Besides, the EC50 in data set [2] came to 6.8 nM; at RXR alpha/PPAR gamma it was 6.4 nM. The Synergy in the data set filed under Homo sapiens came out at 1.8. Moreover, the area under the curve AUC(0-t) at 6 h in data set [6] was 17800 ng·h/mL.
Regarding `CCCCOc1c(\C(C)=C/C=C/C(C)=C/C(=O)O)cc(C(C)(C)C)cc1C(C)(C)C`, the Ki in data set [1] was 3.8 nM; in data set [3] it was above 10000 nM. Also, the EC50 in data set [2] was found to be 3.3 nM; on RXR alpha/PPAR gamma, 9.2 nM. Further, the Synergy in the data set filed under Homo sapiens came to 1.2.
